Test results: patent US7501384B2, “Crystalline modification of the anhydrate of boscalid” (BASF Aktiengesellschaft, priority 2003, dated 2009)

Assay: Tank mixing compatibility: 5% suspension of water-dispersible granules in CIPAC D water mixed with 1% Solvesso 200, stored, solid residue on 75 μm sieve determined
Type: physicochemical
Procedure: Comparison of the Tank Mixing Compatibility: For this purpose, both water-dispersible granules of the above composition, comprising anhydrate of the compound of the formula I of modification I (formulation A), and water-dispersible granules of anhydrate of the compound of the formula I of modification II (formation B) were prepared. A 5% strength suspension of the respective water-dispersible granules in CIPAC D water (Ca^++/Mg^++ (4:1) hardness of 342 ppm and pH of from 6.0 to 7.0 was then prepared. This suspension was then mixed with 1% of Solvesso 200 (mixture of aromatic hydrocarbons) as a typical solvent for solvent-containing liquid formulations (e.g. EC). The corresponding spray liquor was then stored over a certain period at a certain temperature. For assessing the quality, the solid residue on a 75 μm sieve was determined after the storage.

For `O=C(Nc1ccccc1-c1ccc(Cl)cc1)c1cccnc1Cl` [modification II, 2-chloro-N-(4′-chlorobiphenyl-2-yl)-nicotinamide], the “crystal growth in the presence of solvents” value was “scarcely any crystal growth”.
